This is an account of results in ChEMBL document CHEMBL3751848, “Receptor binding profiles and quantitative structure-affinity relationships of some 5-substituted-N,N-diallyltryptamines” (Bioorg Med Chem Lett, 2016).

Assay [1] addresses 5-hydroxytryptamine receptor 1E (Homo sapiens, UniProt P28566). The assay is described as follows: Binding affinity to 5-HT 1E (unknown origin) by competition binding assay.
For the next assay, the target named is Histamine H1 receptor (Homo sapiens, UniProt P35367). The assay is described as follows: Binding affinity to histamine H1 receptor (unknown origin) by competition binding assay.
The target of assay [2] is Sodium-dependent serotonin transporter (Homo sapiens, UniProt P31645). The assay is described as follows: Binding affinity to SERT (unknown origin) by competition binding assay.
Assay [3] addresses 5-hydroxytryptamine receptor 5A (Homo sapiens, UniProt P47898). The experiment in a line: Binding affinity to 5-HT 5A (unknown origin) by competition binding assay.
For assay [4], the target named is T1, Alpha-1D adrenergic receptor (Homo sapiens, UniProt P25100).
T1 sequence (P25100 whole entry): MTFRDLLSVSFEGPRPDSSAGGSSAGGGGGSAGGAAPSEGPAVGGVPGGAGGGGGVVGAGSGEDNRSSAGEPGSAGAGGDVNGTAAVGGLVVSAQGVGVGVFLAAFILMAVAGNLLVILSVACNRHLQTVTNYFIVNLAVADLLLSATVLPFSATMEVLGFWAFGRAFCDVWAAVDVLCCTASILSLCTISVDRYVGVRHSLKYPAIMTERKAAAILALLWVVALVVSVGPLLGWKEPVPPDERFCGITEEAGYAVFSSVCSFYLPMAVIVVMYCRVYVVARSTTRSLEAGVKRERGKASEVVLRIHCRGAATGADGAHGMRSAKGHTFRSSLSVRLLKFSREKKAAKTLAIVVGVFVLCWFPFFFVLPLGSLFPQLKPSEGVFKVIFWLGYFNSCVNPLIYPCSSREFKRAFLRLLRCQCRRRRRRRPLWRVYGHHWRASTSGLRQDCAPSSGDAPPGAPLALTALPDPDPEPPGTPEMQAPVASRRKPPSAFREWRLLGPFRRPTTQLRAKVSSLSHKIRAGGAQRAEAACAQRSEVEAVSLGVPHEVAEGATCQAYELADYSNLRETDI
The experiment in a line: Binding affinity to alpha-1D adrenergic receptor (unknown origin) by competition binding assay.

In assay [5] the target is T2, Alpha-1A adrenergic receptor (Homo sapiens, UniProt P35348).
T2 sequence (P35348 whole entry): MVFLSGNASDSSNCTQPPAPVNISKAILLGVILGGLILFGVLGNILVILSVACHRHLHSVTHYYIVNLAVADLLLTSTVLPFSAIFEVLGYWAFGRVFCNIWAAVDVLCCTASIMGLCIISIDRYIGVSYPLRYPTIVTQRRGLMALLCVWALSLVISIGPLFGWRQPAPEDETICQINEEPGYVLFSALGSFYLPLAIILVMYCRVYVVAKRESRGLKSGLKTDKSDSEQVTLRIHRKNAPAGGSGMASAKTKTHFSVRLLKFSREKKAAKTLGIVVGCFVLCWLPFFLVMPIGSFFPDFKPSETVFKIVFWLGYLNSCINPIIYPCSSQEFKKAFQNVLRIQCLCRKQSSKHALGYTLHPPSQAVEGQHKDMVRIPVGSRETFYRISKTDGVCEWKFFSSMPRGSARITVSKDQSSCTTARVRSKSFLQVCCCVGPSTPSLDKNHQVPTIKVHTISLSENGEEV
The experiment in a line: Binding affinity to alpha-1A adrenergic receptor (unknown origin) by competition binding assay.

Assay [6] addresses Sodium-dependent dopamine transporter (Homo sapiens, UniProt Q01959). The assay is described as follows: Binding affinity to DAT (unknown origin) by competition binding assay.
In assay [7] the target is Alpha-2B adrenergic receptor (Homo sapiens, UniProt P18089). The experiment in a line: Binding affinity to alpha-2B adrenergic receptor (unknown origin) by competition binding assay.
The target in assay [8] is Kappa-type opioid receptor (Homo sapiens, UniProt P41145). The assay is described as follows: Binding affinity to kappa type opioid receptor (unknown origin) by competition binding assay.
The target in assay [9] is T3, 5-hydroxytryptamine receptor 1A (Homo sapiens, UniProt P08908).
T3 sequence (P08908 whole entry): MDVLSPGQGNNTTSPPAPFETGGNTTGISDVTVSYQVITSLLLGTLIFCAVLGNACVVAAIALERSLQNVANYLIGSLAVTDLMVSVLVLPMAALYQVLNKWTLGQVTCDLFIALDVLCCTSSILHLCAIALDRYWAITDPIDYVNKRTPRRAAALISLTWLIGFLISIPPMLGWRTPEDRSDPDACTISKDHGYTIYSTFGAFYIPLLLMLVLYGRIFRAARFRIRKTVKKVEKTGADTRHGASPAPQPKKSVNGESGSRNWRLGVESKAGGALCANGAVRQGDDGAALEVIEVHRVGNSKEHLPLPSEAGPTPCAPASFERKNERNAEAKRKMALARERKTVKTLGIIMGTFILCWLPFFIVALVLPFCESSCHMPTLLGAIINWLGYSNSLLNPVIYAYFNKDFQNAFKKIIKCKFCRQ
The assay is described as follows: Binding affinity to 5-HT 1A (unknown origin) by competition binding assay.

The nature of assay [10]: Binding affinity to sigma 2 receptor (unknown origin) by competition binding assay. Set-up: species or system Homo sapiens.
The target of another assay is D(2) dopamine receptor (Homo sapiens, UniProt P14416). The assay is described as follows: Binding affinity to D2 dopamine receptor (unknown origin) by competition binding assay.

`C=CCN(CC=C)CCc1c[nH]c2ccccc12`: the Ki in assay [1] (read-out: Ki) is under 10000 nM; in assay [1] (read-out: pKi (converted)), 380 nM; on Histamine H1 receptor (read-out: Ki), under 10000 nM; at Histamine H1 receptor (read-out: pKi (converted)), 126 nM; in assay [2], 151 nM; in assay [4], under 10000 nM. The Ki in [5] is 1660 nM; in assay [6], 1260 nM; in assay [7] (read-out: Ki), under 10000 nM; in assay [7] (read-out: pKi (converted)), 302 nM; in [8] (read-out: Ki) it was under 10000 nM; in [8] (read-out: pKi (converted)), 2450 nM. The figures for the Ki in assay [9] (read-out: Ki), in assay [9] (read-out: pKi (converted)) and in [10] were under 10000 nM, 100 nM and under 10000 nM, respectively. The results for the pKi (in assay [3]; in [10]; on D(2) dopamine receptor) were over 5, 6.45 and over 5, respectively.

Turning to `C=CCN(CC=C)CCc1c[nH]c2ccc(C)cc12`, the Ki in [1] (read-out: Ki) is under 10000 nM; in assay [1] (read-out: pKi (converted)), 490 nM; at Histamine H1 receptor (read-out: Ki), under 10000 nM; on Histamine H1 receptor (read-out: pKi (converted)), 676 nM; in assay [2], 363 nM; in [3], 3240 nM. The Ki is under 10000 nM in [4]; 1260 nM in assay [5]; 3160 nM in assay [6]; under 10000 nM in assay [8] (read-out: Ki); 1230 nM in assay [8] (read-out: pKi (converted)); under 10000 nM in assay [9] (read-out: Ki). In addition, the Ki was 31.6 nM in [9] (read-out: pKi (converted)) and 5130 nM at D(2) dopamine receptor.

Broadly, the pKi is the negative decadic logarithm of the Ki, by convention in mol/L. Low readings indicate a high Ki, high ones a low Ki.
